# Reference: patent US20220226339A1, “INHIBITATION OF ACID LIPASE FOR CANCER THERAPY” (Heinrich-Heine-Universität Düsseldorf, priority 2019, published 2022)
# Assays:
# [1] = test system: MDA-MB-231 cancer cells; experiment: Cell proliferation of MDA-MB-231 cancer cells (CellTiterGlo); type: cell-based, human; conditions: MDA-MB-231, 3 days, 15% FCS RPMI, Lalistat concentrations descending from 50 μM, non-cell-toxic range
# Protocol: Cell proliferation was ascertained using Cell-TiterGlo®.
# MDA-MB-231 cancer cells were incubated with Lalistat 2 (selective LAL inhibitor) or the formulation control (mock).
# MDA-MB-231 cancer cells were incubated with Lalistat 2 (selective LAL inhibitor) or the formulation control (mock). For the formulation control, […] alone was used with the same concentration of DMSO as for Lalistat 2. 24 hours after seeding, the cancer cells were incubated for 3 days in 15% FCS-containing RPMI medium having concentrations of Lalistat descending from 50 μM or the corresponding DMSO concentration as control. Subsequently, CellTiterGlo® (Promega) was used to quantify the number of vital cancer cells.
# [2] = test system: MDA-MB-231 cancer cells; experiment: Relative expression of tumor stem cell markers and vimentin by quantitative PCR; type: cell-based, human; conditions: MDA-MB-231, 6 days, 50 μM Lalistat vs 0.05% DMSO
# Protocol: 24 hours after seeding, MDA-MB-231 cancer cells were incubated for 6 days in 15% FCS-containing RPMI medium containing 50 μM Lalistat or formulation control (0.05% DMSO). Subsequently, the relative expression of the (A-C) tumor stem cell markers ALDH1, CD44 and the ratio CD44/CD24 and of the (D) mesenchymal marker vimentin was analyzed by means of quantitative PCR. The values were normalized to the housekeepers GAPDH or HRPT1. The target was amplified in a singleplex assay using “SYBR Green”.
# The results of two independent experiments with three biological replicates in each case are depicted. Significance difference compared to formulation control: ALDH: 0.0026 (GAPDH), 0.0004 (HRPT1); CD44: […] (GAPDH/HRPT1); CD44/CD24: <0.01
# [3] = test system: PD-L1 expression on cancer cells; experiment: PD-L1 expression on cancer cells after Lalistat treatment; type: cell-based
smiles,measurement,setting,value
"O=C(Oc1nsnc1N1CCCCC1)N1CCCCC1 [Lalistat 2, 4-(piperidin-1-yl)-1,2,5-thiadiazol-3-yl piperidine-1-carboxylate]",cell proliferation compared to formulation control,[1],antiproliferative effect
same,cell proliferation compared to formulation control,[1]; listed as Lalistat,distinct inhibition of cell proliferation
same,expression of mesenchymal marker vimentin,[2]; qPCR,reduction in the expression
same,"expression of (tumor) stem cell markers (ALDH1, CD44, ratio CD44/CD24)",[2]; qPCR normalized to GAPDH or HRPT1,reduction in the expression
same,PD-L1 expression on cancer cells,[3],reduced PD-L1 expression
